Reference: US4260601A, “Chemical compounds” (Nyegaard & Co. A/S, priority 1979, dated 1981)
Square brackets hold non-standard residues; d marks the D form. Peptide text beside a SMILES is read from it. pGlu = O=C1CC[C@@H](C(=O)O)N1

Test: anorexigenic / biological activity of the peptide (no method described)

In the case of `O=C(O)CNC(=O)[C@H](Cc1c[nH]cn1)NC(=O)[C@@H]1CCC(=O)N1` [synthetic peptide, L-(pyro)glutamyl-L-histidyl-glycine] ([pGlu]-His-Gly-OH), the “biological activity of the synthetic peptide versus the biogenic material isolated from urine” value (comparison with biogenic material isolated from urine) is reported as “comparable biological activity” and the anorexigenic properties (statement in words, peptide found in the urine of patients suffering from severe anorexia) is reported as “possesses interesting anorexigenic properties”.
